Data from PMC12655529, “Serendipitous Hinge Modulation Hypothetically Reprograms Caerin 1.1-LC Antibacterial Mechanism and Gram-Negative Selectivity” (Pharmaceutics, 2025).
Ends that are not written are not given here.

Tests used:
[1] = system: Acinetobacter baumannii ATCC BAA-747; format: cell-based; settings: ATCC BAA-747
Experimental: (§1) The antimicrobial activities of the peptides were evaluated by determining their minimal inhibitory concentration (MIC) and minimal bactericidal concentration (MBC) values following reported protocols [20]. The tested microorganisms included seven Gram-negative bacterial strains (Escherichia coli ATCC 8739, E. coli ATCC-BAA 2340, E. coli NCTC 13846, Klebsiella pneumoniae ATCC 43816, K. pneumoniae ATCC BAA-2342, Pseudomonas aeruginosa ATCC 9027, Acinetobacter baumannii ATCC BAA-747), three Gram-positive bacterial strains (Staphylococcus aureus ATCC 6538, Enterococcus faecalis NCTC 12697, MRSA NCTC 12493, and the fungal strain Candida albicans ATCC 10231. For the assay, each bacterial strain was cultured overnight at 37 °C in 100 mL of medium in a flask. The cultures were then subcultured to reach the logarithmic growth phase and diluted to 5 × 10^5 CFU/mL. Peptide samples were serially diluted two-fold in microplates, with concentrations ranging from 128 μM to 1 μM. The diluted bacterial suspensions were mixed with the peptide solutions and incubated overnight at 37 °C. The MIC values were determined by measuring the absorbance of each well using a Synergy HT plate reader (Agilent, Cheshire, UK). For MBC determination, aliquots from wells showing no visible growth were inoculated onto agar plates to assess bacterial viability. Each experiment was repeated independently three times and conducted in three independent replicates.

[2] = system: Enterococcus faecalis NCTC 12697; format: cell-based; settings: NCTC 12697
[3] = system: Escherichia coli ATCC 8739; format: cell-based; settings: ATCC 8739
Experimental: as §1

MRSA NCTC 12493 = format: cell-based, Staphylococcus aureus
Experimental: as §1

[4] = system: K. pneumoniae ATCC BAA-2342; format: cell-based, Klebsiella pneumoniae
Experimental: as §1

E. coli ATCC BAA-2340 = format: cell-based, Escherichia coli
[5] = system: Klebsiella pneumoniae ATCC 43816; format: cell-based; settings: ATCC 43816
Experimental: as §1

E. coli NCTC 13846 = format: cell-based, Escherichia coli
Experimental: as §1

Gram-negative bacteria = assay: Geometric mean MIC and therapeutic index, Gram-negative; format: cell-based; settings: geometric mean of MICs
Gram-positive bacteria = assay: Geometric mean MIC and therapeutic index, Gram-positive; format: cell-based; settings: geometric mean of MICs
[6] = system: Pseudomonas aeruginosa ATCC 9027; format: cell-based
Experimental: as §1

[7] = system: Staphylococcus aureus ATCC 6538; format: cell-based; settings: ATCC 6538
Experimental: as §1

horse red blood cells = assay: Haemolysis assay; format: cell-based; settings: concentration inducing 10% haemolysis of horse erythrocytes; 4% (v/v) in PBS, 2 h, 37 °C, absorbance 570 nm; no haemolysis at maximum testing concentration (128 μM) recorded as 256 μM
Experimental: The peptide cytotoxicity against mammalian erythrocytes was evaluated by haemolysis assay on horse red blood cells (E&O Laboratories Ltd., Falkirk, UK). Fresh horse blood was washed three times with PBS and resuspended to a final concentration of 4% (v/v) in PBS. The diluted blood suspension was then mixed with peptide solutions at varying concentrations and incubated for 2 h at 37 °C. Red blood cell suspensions treated with 0.1% Triton X-100 and PBS were used as controls. The Triton X-100-treated suspension was the positive control (for 100% haemolysis), while the PBS-treated suspension was the blank control. Following incubation, the mixtures were centrifuged at 1000× g for 10 min to separate erythrocytes from the supernatant. The absorbance of the supernatants was detected at 570 nm. The percentage haemolysis was calculated by following the equationPercentage Haemolysis = (AbsSample − AbsBlank)/(AbsPositive − AbsBlank) × 100%

Substance | MBC, A. baumannii (ATCC BAA-747) [1] | MIC, A. baumannii (ATCC BAA-747) [1] | MBC, E. faecalis (NCTC 12697) [2] | MIC, E. faecalis (NCTC 12697) [2] | MBC, E. coli (ATCC 8739) [3] | MIC, E. coli (ATCC 8739) [3] | MBC, MRSA (NCTC 12493) (MRSA NCTC 12493) | MIC, MRSA (NCTC 12493) (MRSA NCTC 12493) | MBC, K. pneumoniae (ATCC BAA-2342) [4] | MIC, K. pneumoniae (ATCC BAA-2342) [4] | MBC, E. coli (ATCC BAA-2340) (E. coli ATCC BAA-2340) | MIC, E. coli (ATCC BAA-2340) (E. coli ATCC BAA-2340) | MBC, K. pneumoniae (ATCC 43816) [5] | MIC, K. pneumoniae (ATCC 43816) [5] | MBC, E. coli (NCTC 13846) (E. coli NCTC 13846) | MIC, E. coli (NCTC 13846) (E. coli NCTC 13846) | GM MIC Gram-Negative (Gram-negative bacteria) | GM MIC Gram-Positive (Gram-positive bacteria) | MBC, P. aeruginosa (ATCC 9027) [6] | MIC, P. aeruginosa (ATCC 9027) [6] | other results
GLLSVLGSLKKIVPKAVPKIAEKL-NH2 [Caerin 1.1-LC 11K.19K.PKAVP] | 128 µM | 128 µM | >128 µM | >128 µM | 8 µM | 8 µM | 64 µM | 64 µM | >128 µM | >128 µM | 8 µM | 8 µM | 64 µM | 64 µM | 2 µM | 2 µM | 26.08 µM | 161.5 µM | 64 µM | 32 µM | MBC, S. aureus (ATCC 6538) [7]: >128 µM; MIC, S. aureus (ATCC 6538) [7]: >128 µM; HC10 (horse red blood cells): 256 µM
GLLSVLGSLKLIVAHVVALIAEKL-NH2 [Caerin 1.1-LC 2P-2A] | >128 µM | >128 µM | >128 µM | >128 µM | >128 µM | >128 µM | >128 µM | >128 µM | >128 µM | >128 µM | >128 µM | >128 µM | >128 µM | >128 µM | >128 µM | >128 µM | 256 µM | 256 µM | >128 µM | >128 µM | MBC, S. aureus (ATCC 6538) [7]: >128 µM; MIC, S. aureus (ATCC 6538) [7]: >128 µM; HC10 (horse red blood cells): 256 µM
GLLSVLGSLKLIVPHLLPLIAEKL-NH2 [Caerin 1.1-LC PHLLP] | 8 µM | 4 µM | 32 µM | 32 µM | 8 µM | 4 µM | 4 µM | 4 µM | 16 µM | 8 µM | 4 µM | 4 µM | 8 µM | 8 µM | 4 µM | 4 µM | 8 µM | 6.56 µM | 64 µM | 32 µM | MBC, S. aureus (ATCC 6538) [7]: 4 µM; MIC, S. aureus (ATCC 6538) [7]: 4 µM; HC10 (horse red blood cells): 1.6 µM
GLLSVLGSLKLIVPHWWPLIAEKL-NH2 [Caerin 1.1-LC PHWWP] | >128 µM | >128 µM | >128 µM | >128 µM | 64 µM | 32 µM | >128 µM | >128 µM | >128 µM | >128 µM | 32 µM | 16 µM | >128 µM | >128 µM | 128 µM | 64 µM | 105 µM | 256 µM | >128 µM | >128 µM | MBC, S. aureus (ATCC 6538) [7]: >128 µM; MIC, S. aureus (ATCC 6538) [7]: >128 µM; HC10 (horse red blood cells): 256 µM
